In ChEMBL document CHEMBL4028862 (J Med Chem, 2017):
Calls of active or inactive are those of the source. The calls are words filed in the database; no cut-off is given here.

What was measured:
[1] = Solubility of the compound in buffer at less than pH 5; assay type: physicochemical
[2] = Solubility of the compound in buffer at pH 4; assay type: physicochemical
[3] = target: T1, Acid-sensing ion channel 1 (Rattus norvegicus) (UniProt P55926)
T1 sequence (whole entry): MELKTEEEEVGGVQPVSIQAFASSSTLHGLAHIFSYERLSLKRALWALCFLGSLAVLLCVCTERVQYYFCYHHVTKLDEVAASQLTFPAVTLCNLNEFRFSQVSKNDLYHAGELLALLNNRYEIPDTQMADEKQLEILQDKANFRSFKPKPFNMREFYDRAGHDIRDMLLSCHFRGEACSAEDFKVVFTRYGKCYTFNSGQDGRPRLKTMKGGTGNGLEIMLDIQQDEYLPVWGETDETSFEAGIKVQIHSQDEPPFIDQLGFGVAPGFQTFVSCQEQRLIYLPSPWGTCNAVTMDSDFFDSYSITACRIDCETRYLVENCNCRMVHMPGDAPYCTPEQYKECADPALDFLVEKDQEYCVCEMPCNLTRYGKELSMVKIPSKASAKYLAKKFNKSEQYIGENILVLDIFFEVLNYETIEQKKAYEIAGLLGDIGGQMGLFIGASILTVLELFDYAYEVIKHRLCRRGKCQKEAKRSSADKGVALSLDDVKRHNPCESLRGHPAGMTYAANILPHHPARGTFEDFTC

cells = details: Rattus norvegicus
[4] = target: T2, Acid-sensing ion channel 3 (Rattus norvegicus, UniProt O35240); experiment: Inhibition of rat ASIC3 receptor expressed in xenopus lavies oocytes assessed as inhibition of pH 6.4-gated currents by two electrode voltage clamp; assay type: cell-based
T2 sequence (O35240 whole entry): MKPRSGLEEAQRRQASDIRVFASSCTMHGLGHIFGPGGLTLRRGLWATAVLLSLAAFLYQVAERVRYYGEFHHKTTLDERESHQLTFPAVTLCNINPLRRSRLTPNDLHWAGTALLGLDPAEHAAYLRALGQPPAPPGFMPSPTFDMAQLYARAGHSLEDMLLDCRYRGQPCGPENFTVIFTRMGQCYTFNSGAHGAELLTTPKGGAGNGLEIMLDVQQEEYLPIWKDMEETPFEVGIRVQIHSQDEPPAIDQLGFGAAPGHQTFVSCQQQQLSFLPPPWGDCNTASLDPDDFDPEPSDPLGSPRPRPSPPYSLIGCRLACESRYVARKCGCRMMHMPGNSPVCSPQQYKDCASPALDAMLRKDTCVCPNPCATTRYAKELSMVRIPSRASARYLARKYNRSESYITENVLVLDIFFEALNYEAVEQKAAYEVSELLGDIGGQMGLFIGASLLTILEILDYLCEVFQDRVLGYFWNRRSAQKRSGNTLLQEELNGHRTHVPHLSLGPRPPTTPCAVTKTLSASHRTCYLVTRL

[5] = target: T3, Acid-sensing ion channel 1 (Rattus norvegicus, UniProt P55926); experiment: Inhibition of rat ASIC1a receptor expressed in xenopus lavies oocytes assessed as inhibition of pH 6.7-gated currents by two electrode voltage clamp; assay type: cell-based
T3 sequence (P55926 whole entry): T1 sequence (whole entry)

[6] = target: T1, Acid-sensing ion channel 1 (Rattus norvegicus); experiment: Inhibition of rat ASIC1a receptor expressed in xenopus lavies oocytes at 0.03 to 3 mM at greater than pH 5 by two electrode voltage clamp; assay type: cell-based
[7] = target: T1, Acid-sensing ion channel 1 (Rattus norvegicus); experiment: Inhibition of rat ASIC1a receptor expressed in xenopus lavies oocytes at 0.1 to 3 mM at greater than pH 5 by two electrode voltage clamp; assay type: cell-based

Compound	IC50 [4]	IC50 [5]	further results
CC(C)Cc1ccc(C(C)C(=O)O)cc1 (racemic) [IBUPROFEN]	–	–	solubility [1]: Insoluble; solubility [2]: Insoluble; pH50 [3]: 6.6; IC50 (cells): 3000 µM; IC50 (cells; read-out: pIC50 (converted)): 3160 µM
CCC(C(=O)O)c1ccc(CC(C)C)cc1 (centres undefined) [BUTIBUFEN]	288 µM	182 µM	–
CC(C)Cc1ccc(C(=O)O)cc1	302 µM	417 µM	inhibition [6]: Active
CC(C)Cc1ccc(C(C)[N+](=O)[O-])cc1 (centres undefined)	–	–	inhibition [7]: inactive
Cc1ccc(C(C)C(=O)O)cc1 (centres undefined)	708 µM	> 10000 µM	–
CC(C)Cc1ccc(CC(=O)O)cc1 [IBUFENAC]	417 µM	1020 µM	–
CC(C(=O)O)c1ccc(-c2ccccc2)c(F)c1 (racemic) [FLURBIPROFEN]	229 µM	170 µM	–
CC(C)Cc1ccc(C(F)C(=O)O)cc1 (centres undefined)	891 µM	955 µM	–
